Series [1] relates to malarial strain W2 (pyrimethamine and chloroquine-resistant). Put plainly: in vitro antimalarial activity against multidrug resistant strain W2. The series is classed as cell-based, P. falciparum. The settings on record: Plasmodium falciparum, read-out: EC50 W2 (nM).
Series [2] deals with malarial strain TM90-C2B (mefloquine, chloroquine, atovaquone, and pyrimethamine-resistant). As to the kind of experiment: microbe, parasite or virus in culture. The series is classed as cell-based, P. falciparum. The settings on record: for EC50: Plasmodium falciparum, TM90, read-out: EC50 TM90-C2B (nM); for RI: RI = EC50 TM90-C2B/EC50 W2. The text has this:
Ideally, the RI of a compound should lie between 0.3 and 3.0 in order to avoid rapidly inducing resistance in the parasite. […]

Series [3] relates to P. berghei sporozoites expressing luciferase. Put plainly: in vitro liver stage activity, luciferase sporozoites infecting HEPG2 hepatoma cells. The settings on record: Plasmodium berghei, HEPG2 cells. It counts as cell-based.
The nature of series [4]: aqueous solubility (LC/MS- or HPLC-based assay). The series is classed as physicochemical. The method, boiled down: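 Aqueous solubility and log D (pH 7.4) determined by LC/MS-based assays; solubility examined at more than one pH.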
Series [5] can be described thus: lipophilicity log D at pH 7.4. The series is classed as physicochemical. The note with it: octanol/water. The text has this: Furthermore, to profile the properties of the piperazinyl-4(1H)-quinolones, and to identify potential limitations, aqueous solubility and lipophilicity log D were experimentally determined via LC/MS-based assays as described by the Manetsch laboratory previously^8,10,31,32 (Tables 9-12). Encouragingly, the piperazinyl-4(1H)-quinolones were much more soluble than the previously described phenoxyethoxy-4(1H)-quinolone analogues.^19 As expected, the solubility of all compounds was affected by pH, with better solubility under more acidic conditions.
In parallel to testing the compounds for in vitro antimalarial activity, a limited structure-property relationship (SPR) study focusing on log D and aqueous solubility was conducted to assess potential physiochemical liabilities (FIG. 22). […] For these reasons, physicochemical properties were not strongly considered as selection criteria for in vivo efficacy studies.

Series [6] has as its system P. berghei sporozoite infected mice. Put plainly: in vivo efficacy against liver stages, bioluminescence imaging. The settings on record: for % Inhibition Day 9 PI: single dose 1 hour after infection; for protection by bioluminescence imaging: 44 h, day 6, 9 and 13 PI, 25, 50, 100 mg/kg oral or subcutaneous, result in words. The method, then:
Animals (n=5 per group) received a single dose by gavage 1 hour after inoculation with sporozoites. Representative images taken at 44 h, day 6, day 9, and day 13 after infection are shown. At 44 h, bioluminescent signal was detected in control untreated animals, with the highest intensity noted in the area overlaying the liver, consistent with the presence of liver-stage parasites.
At 44 h PI, day 6 PI, day 9 PI, and day 13 PI, compound efficacy was determined by bioluminescence imaging via injection of D-luciferin. Both compounds were administered orally or subcutaneously at increasing doses of 25 mg/kg, 50 mg/kg, and 100 mg/kg in PEG 400. […] Progression of parasitemia was monitored up to 30 days after infection (Table 8).

Series [7] concerns Pb-infected mice. Put plainly: in vivo efficacy scouting assay against blood stages. Details: species or system P. berghei; mice. The settings on record: for inhibition in vivo at 50 mg/kg: Plasmodium berghei, 144 h, read-out: % Inhibition Day 6 PI; for activities in these scout assays: result in words. The method, then: The screening involved a single oral 50 mg/kg dose 1 day post infection (PI) and an assessment of parasitemia on days 3 PI and 6 PI (Table 6).
The screening was performed by treating two infected mice with a single 50 mg/kg oral dose of test compound suspended in PEG400 on day 1 postexposure (PE) followed by assessing parasitemia on days 3 and 6 PE.

Series [8] deals with J774 mammalian cells. Put plainly: cytotoxicity to J774 cells. It counts as cell-based. The settings on record: Mus musculus, J774, read-out: EC50 J774 (μM). As to the method:
This allowed a simplified method for comparing the different assays being simultaneously run. Additionally, each compound was also tested for cytotoxicity using mammalian J774 cell lines in a 96-well plate format.^12-14, 16

Setting [9] is: aqueous medium, pH 2, simulated gastric fluid, pH 2.0, read-out: Solubility pH 2.0.
Where [10] appears, read: aqueous medium, pH 6.5, aqueous buffer, pH 6.5, read-out: Solubility pH 6.5.
Where [11] appears, read: single oral 50 mg/kg dose 1 day PI, vs untreated animals.
The mark [12] stands for this setting: aqueous solution, pH 2, simulated gastric fluid, pH 2.0, read-out: Solubility pH 2.0.
Setting [13] is: aqueous solution, pH 6.5, aqueous buffer, pH 6.5, read-out: Solubility pH 6.5.
Where [14] appears, read: single oral 50 mg/kg dose 1 day PI.

These results are taken from patent US10000452B1, “Quinolone-based compounds, formulations, and uses thereof” (University of South Florida, priority 2016, dated 2018).

Molecules are shown by their SMILES. In brackets after ≈: the same amount, converted by molar mass. Several values for one entry are separate records, joined by “and”; a condition that tells them apart may be missing. Identical values can stand only once. Like-named read-outs stand apart in the source and are kept apart here.

Take `COC(=O)c1c[nH]c2cc(CN3CCN(c4ccccc4)CC3)ccc2c1=O` [Compound 8j, Methyl 4-oxo-7-((4-phenylpiperazin-1-yl)methyl)-1,4-dihydroquinoline-3-carboxylate]: the figures for the EC50 in series [1], in series [2] and in series [3] were 1.25 nM, 483 nM and 4.74 nM, respectively. Besides, the solubility in series [4] (setting [9]) and in series [4] (setting [10]) was at least 80 µM each time. This molecule registered a chromatographic logD in series [5] of 0.86. Also, the “No. of Cures” value is listed as 2/5 in series [6] (25 mg/kg oral), 2/5 in series [6] (50 mg/kg oral), 3/5 in series [6] (50 mg/kg subcutaneous) and 5/5 in series [6] (100 mg/kg oral). The “% Inhibition Day 9 PI” value is reported as 65.3% in series [6] (25 mg/kg oral), 85.1% in series [6] (50 mg/kg oral), above 99.0% in series [6] (50 mg/kg subcutaneous) and above 99.0% in series [6] (100 mg/kg oral). Moreover, in series [6], the “protection by bioluminescence imaging” value is “no luminescence was observed”. Moreover, in series [6] (over all doses tested, 25-100 mg/kg), the “animals cured (survival curves)” value is on record as “two or more out of five”.

On to `COC(=O)c1c[nH]c2cc(CN3CCN(Cc4ccc(OC)cc4)CC3)ccc2c1=O` [Compound 8l, Methyl 7-((4-(4-methoxybenzyl)piperazin-1-yl)methyl)-4-oxo-1,4-dihydroquinoline-3-carboxylate], for which the values for the EC50 in series [1], in series [2] and in series [3] were 2.5 nM, 799 nM and 83.4 nM, respectively. Moreover, the solubility in series [4] (setting [9]) and in series [4] (setting [10]) was at least 80 µM each time. In series [5], the chromatographic logD came out at 1.66. For the same molecule, in series [7] (setting [11]), the inhibition in vivo at 50 mg/kg was around 40%. Besides, the “No. of Cures” value in series [6] (25 mg/kg oral) is 0/5; in series [6] (50 mg/kg oral), 0/5; in series [6] (50 mg/kg subcutaneous), 0/5; in series [6] (100 mg/kg oral), “one of five and 1/5”. Further, the entries for the “% Inhibition Day 9 PI” value in series [6] (25 mg/kg oral) and in series [6] (50 mg/kg subcutaneous) were 49.1% and 20.1%, respectively. Also, in series [6], the “protection by bioluminescence imaging” value is on record as “full protection at all time points only at an oral dose of 100 mg/kg”.

For `COC(=O)c1c[nH]c2cc(CN3CCN(c4ccc(F)cc4)CC3)ccc2c1=O` [Compound 8o, Methyl 7-((4-(4-fluorophenyl)piperazin-1-yl)methyl)-4-oxo-1,4-dihydroquinoline-3-carboxylate], the EC50 amounted to 1.75 nM in series [1], 131 nM in series [2], 1.06 nM in series [3] and 2 µM in series [8]. The molecule also showed an RI in series [2] of 74.9. Moreover, the solubility in series [4] (setting [12]) and in series [4] (setting [13]) was at least 80 µM throughout. The chromatographic logD in series [5] came to 2.38. In addition, the inhibition in vivo at 50 mg/kg in series [7] (po) is above 85%. The “activities in these scout assays” value in series [7] (setting [14]) is “excellent activities”. In addition, the “% Inhibition Day 3 PI” value in series [7] (setting [11]) is on record as “full inhibition”.

Consider `COC(=O)c1c[nH]c2cc(CN3CCN(c4ccc(C(F)(F)F)cc4)CC3)ccc2c1=O` [Compound 8p, Methyl 4-oxo-7-((4-(4-(trifluoromethyl)phenyl)piperazin-1-yl)methyl)-1,4-dihydroquinoline-3-carboxylate], for which the EC50 amounted to 0.315 nM in series [1], 122 nM in series [2], 15.6 nM in series [3] and 10.7 µM in series [8]. The RI in series [2] is reported as 387. The solubility in series [4] (setting [12]) was at least 80 µM; in series [4] (setting [13]), 1 to 19.9 µM (≈ 0.445 to 8.86 µg/mL). In series [5], this molecule came in with a chromatographic logD of 3.23. For the same molecule, the inhibition in vivo at 50 mg/kg in series [7] (po) was above 85%. Moreover, the “activities in these scout assays” value in series [7] (setting [14]) is “excellent activities”. Also, the “% Inhibition Day 3 PI” value in series [7] (setting [11]) is given as “full inhibition”. The “% Inhibition Day 6 PI” value in series [7] (setting [11]) is “completely inhibited parasite growth”.

Regarding `COC(=O)c1c[nH]c2cc(CN3CCN(c4ccccc4)CC3)c(C)cc2c1=O` [Compound 8q, Methyl 6-methyl-4-oxo-7-((4-phenylpiperazin-1-yl)methyl)-1,4-dihydroquinoline-3-carboxylate], the EC50 was found to be 0.435 nM in series [1], 147 nM in series [2], 6.92 nM in series [3] and 11.9 µM in series [8]. The RI in series [2] was 338. Moreover, the solubility in series [4] (setting [9]) is at least 80 µM; in series [4] (setting [10]), 60 to 79.9 µM (≈ 23.5 to 31.3 µg/mL). The chromatographic logD in series [5] turned out to be 2.81. The “% Inhibition Day 6 PI” value in series [7] (setting [11]) is reported as “little to moderate protection”.

`COC(=O)c1c[nH]c2cc(CN3CCN(Cc4ccccc4)CC3)c(C)cc2c1=O` [Compound 8r, Methyl 7-((4-benzylpiperazin-1-yl)methyl)-6-methyl-4-oxo-1,4-dihydroquinoline-3-carboxylate]: the EC50 is 1.45 nM in series [1], 890 nM in series [2], 9.46 nM in series [3] and above 20 µM in series [8]. Further, the solubility in series [4] (setting [9]) and in series [4] (setting [10]) was at least 80 µM throughout. The molecule also gave a chromatographic logD in series [5] of 1.94. Moreover, in series [7] (setting [11]), the “% Inhibition Day 6 PI” value was “little to moderate protection”.

On to `COC(=O)c1c[nH]c2cc(CN3CCN(c4ccccc4)CC3)c(OC)cc2c1=O` [Compound 8w, Methyl 6-methoxy-4-oxo-7-((4-phenylpiperazin-1-yl)methyl)-1,4-dihydroquinoline-3-carboxylate], for which the EC50 in series [1] is 1.62 nM; in series [2], 493 nM; in series [3], 113 nM; in series [8], above 20 µM. Also, the solubility in series [4] (setting [9]) and in series [4] (setting [10]) was at least 80 µM in each case. Further, the chromatographic logD in series [5] stood at 1.32. Further, the “activities in these scout assays” value in series [7] (setting [14]) is given as “excellent activities”. Besides, the “% Inhibition Day 6 PI” value in series [7] (setting [11]) was found to be 82.4%.

Take `COC(=O)c1c[nH]c2cc(CN3CCN(Cc4ccccc4)CC3)c(OC)cc2c1=O` [Compound 8x, Methyl 7-((4-benzylpiperazin-1-yl)methyl)-6-methoxy-4-oxo-1,4-dihydroquinoline-3-carboxylate]: the half-maximal effective concentration (EC50) was 5.45 nM in series [1], 2830 nM in series [2], 9.26 nM in series [3] and above 20 µM in series [8]. Moreover, the solubility in series [4] (setting [9]) was at least 80 µM; in series [4] (setting [10]), 60 to 79.9 µM (≈ 25.3 to 33.7 µg/mL). Also, the chromatographic logD in series [5] was found to be 1.28. Further, the “% Inhibition Day 6 PI” value in series [7] (setting [11]) was “little to moderate protection”.

For the molecule `COC(=O)c1c[nH]c2cc(CN3CCN(c4ccc(OC)cc4)CC3)c(OC)cc2c1=O` [Compound 8z, Methyl 6-methoxy-7-((4-(4-methoxyphenyl)piperazin-1-yl)methyl)-4-oxo-1,4-dihydroquinoline-3-carboxylate], the EC50 in series [1] turned out to be 3.38 nM; in series [2], 861 nM; in series [3] it was 10.4 nM; in series [8], 15.7 µM. Moreover, the solubility in series [4] (setting [12]) and in series [4] (setting [13]) was at least 80 µM throughout. The molecule also yielded a chromatographic logD in series [5] of 2.19. Besides, the “activities in these scout assays” value in series [7] (setting [14]) is listed as “excellent activities”. The “% Inhibition Day 6 PI” value in series [7] (setting [11]) came to 70.6%.

In the case of `COc1cc(NC(C)CCCN)c2ncccc2c1` (centres unmarked) [Primaquine, reference compound], in series [6] (50 mg/kg oral), the “No. of Cures” value is on record as 2/5 and the “% Inhibition Day 9 PI” value was above 99.0%.

The term EC50 denotes the midpoint of the concentration-response curve. As usually defined, the solubility is the concentration that dissolves in the medium under given conditions. Broadly, the chromatographic logD is a lipophilicity value derived from retention on a column. Read a low chromatographic logD as a more hydrophilic compound.
